Assay results as given in patent EP4818177A1, “TRICYCLIC DERIVATIVE INHIBITOR, AND PREPARATION METHOD AND USE THEREFOR” (Shanghai Hansoh Biomedical Co., Ltd., priority 2023, dated 2025).

How the values were obtained:
HCT116 wild-type cells = assay: Cell proliferation inhibition (CellTiter-Glo), wild-type cells; format: cell-based; settings: Homo sapiens, HCT-116, HCT116 wild-type cells, 72-240 hours incubation
Description: (§1) Test Example 2: Determination of the inhibitory effect of the compounds of the present invention on the proliferation activity of HCT116 and MTAP Knockout HCT116 cells.
(§2) 1. Experimental objective: to determine the inhibitory effect of the compound on the proliferation activity of HCT116 wild-type and HCT116 MTAP knockout cells. 2. Experimental instruments: Centrifuge (Eppendorf 5810R); microplate reader (BioTek Synergy H1 or PerkinElmer Envision); pipette (Eppendorf or Rainin). 3. Experimental reagents: HCT116 and MTAP Knockout HCT116 cells were purchased from Nanjing Cobioer; Cell Titer-Glo was purchased from Promega (Cat. No. G7573); McCoy' 5A was purchased from Gibco (Cat. No. 12330031); FBS was purchased from Gibco (Cat. No. 10091148); PBS was purchased from Gibco (Cat. No. 10010023); trypsin was purchased from Gibco (Cat. No. 25200056); cell culture plates were purchased from Corning (Cat. No. 3610). 4. Experimental methods: HCT116 and MTAP Knockout HCT116 cells were cultured in McCoy'5A medium containing 10% FBS until an appropriate cell density was reached. The cells were then collected and adjusted to a suitable concentration using complete medium. The cell suspension was seeded into a 96-well plate at 90 µL per well and allowed to adhere overnight in a 37°C, 5% CO2 incubator. Compound solutions of various concentrations were prepared using DMSO and culture medium, with a vehicle control set. The compound solutions were added to the 96-well plate at 10 µL per well, and the plate was incubated in a 37°C, 5% CO2 incubator for an additional 72-240 hours. After incubation, CellTiter-Glo solution was added, and the mixture was mixed uniformly by shaking, followed by incubation in the dark for 10 to 30 minutes. Luminescence was measured using a Synergy H1 or Envision microplate reader. 5. Experimental data processing method: The inhibition rate was calculated using the luminescence signal values, and the concentrations along with the inhibition rates were subjected to non-linear regression curve fitting using Graphpad Prism software to obtain the IC50 values.

[1] = tested on: MTAP Knockout HCT116 cells; assay: Cell proliferation inhibition (CellTiter-Glo), MTAP knockout cells; format: cell-based; settings: for Selectivity: HCT116 versus MTAP Knockout HCT116; for IC50: Homo sapiens, HCT-116, MTAP Knockout HCT116 cells, 72-240 hours incubation, CellTiter-Glo
Description: as §1, §2

[2] = biological target: T1, PRMT5/MEP50-MTA protein complex (Homo sapiens, UniProt O14744); assay: Thermal shift assay: change in melting temperature of the PRMT5/MEP50-MTA protein complex; format: binding; settings: compound 8 µM, PRMT5/MEP50 2 µM, MTA 2 µM; Tm minus DMSO vehicle control
T1 construct: purchased Viva Biotech
T1 sequence (O14744 whole entry): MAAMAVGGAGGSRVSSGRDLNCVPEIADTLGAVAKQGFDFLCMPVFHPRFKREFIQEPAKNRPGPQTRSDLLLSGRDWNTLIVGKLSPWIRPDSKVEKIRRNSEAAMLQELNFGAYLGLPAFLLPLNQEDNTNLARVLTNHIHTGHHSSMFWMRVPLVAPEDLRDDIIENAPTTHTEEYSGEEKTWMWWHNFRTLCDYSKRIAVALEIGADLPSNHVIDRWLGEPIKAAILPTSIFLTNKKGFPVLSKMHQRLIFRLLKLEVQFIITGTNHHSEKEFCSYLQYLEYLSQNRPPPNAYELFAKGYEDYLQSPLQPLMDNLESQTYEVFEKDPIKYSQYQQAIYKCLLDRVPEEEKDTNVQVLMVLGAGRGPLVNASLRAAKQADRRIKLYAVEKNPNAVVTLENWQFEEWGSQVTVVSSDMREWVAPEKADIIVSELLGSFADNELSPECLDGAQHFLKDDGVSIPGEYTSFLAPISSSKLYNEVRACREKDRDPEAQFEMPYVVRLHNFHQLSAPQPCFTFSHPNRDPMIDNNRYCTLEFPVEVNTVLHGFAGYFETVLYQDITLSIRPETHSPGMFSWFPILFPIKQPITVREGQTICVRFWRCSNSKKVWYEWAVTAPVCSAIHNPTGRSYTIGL
T1 sequence (Q9BQA1 whole entry partner): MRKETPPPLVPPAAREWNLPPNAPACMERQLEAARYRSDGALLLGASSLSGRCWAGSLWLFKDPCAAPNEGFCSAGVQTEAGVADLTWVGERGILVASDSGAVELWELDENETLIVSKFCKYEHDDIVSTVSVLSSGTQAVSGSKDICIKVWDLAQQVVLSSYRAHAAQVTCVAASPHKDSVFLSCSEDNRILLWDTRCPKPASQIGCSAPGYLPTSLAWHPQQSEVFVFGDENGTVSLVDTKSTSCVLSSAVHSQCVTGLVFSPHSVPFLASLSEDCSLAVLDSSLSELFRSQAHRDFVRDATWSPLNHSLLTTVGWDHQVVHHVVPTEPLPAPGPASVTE
Description: Test Example 1: Determination of the ability of the compounds of the present invention to improve the thermal stability (melting temperature) of the PRMT5/MEP50-MTA protein complex.
1. Experimental objective: The objective of this test example is to determine the ability of the compound to improve the thermal stability of the PRMT5/MEP50-MTA protein complex, resulting in an increase in the protein melting temperature. 2. Experimental instruments: Quantitative PCR instrument (Quantstudio6 Flex) was purchased from Life Technologies; pipettes were purchased from Eppendorf or Rainin. 3. Experimental reagents and consumables: PRMT5/MEP50 protein was prepared by Viva Biotech; HEPES was purchased from Thermo Fisher Scientific (Cat. No. 15630080); DTT was purchased from Sigma (Cat. No. 43816-10ml); sodium chloride was purchased from Invitrogen (Cat. No. AM9760G); Protein Thermal Shift™ Dye Kit was purchased from Thermo Fisher Scientific (Cat. No. 4461146); methylthioadenosine (MTA) was purchased from Sigma (Cat. No. D5011). 4. Experimental methods: In this experiment, the thermal shift method was used to measure the change in the melting temperature (Tm) of the PRMT5/MEP50-MTA protein complex before and after compound binding, thereby characterising the ability of the compound to improve the thermal stability of the PRMT5/MEP50-MTA protein complex. A solution containing 50 mM HEPES, 10 mM DTT, 2 µM MTA, SYPRO Orange and 250 mM NaCl was prepared as the experimental buffer. Human PRMT5/MEP50 protein was added to a final concentration of 2 µM, and the mixture was incubated at room temperature for 30 minutes. The above reaction mixture was aliquoted into 8-strip PCR tubes at 19.5 µL per tube. Then 0.5 µL of test compound or DMSO was added to each tube, providing a total reaction volume of 20 µL and a final compound concentration of 8 µM. 2.5% DMSO was set as the vehicle control. After incubation at room temperature for 10 minutes, the PCR tubes were placed in a PCR instrument, and the melt curve function was selected to measure the melting temperature of the PRMT5/MEP50-MTA protein complex in different treatment groups (heated from 25°C to 95°C, 0.03°C/s). 5. Experimental data processing method: The experimental data files from the PCR instrument were imported into the thermal shift software to obtain the melting temperature (Tm) for each treatment group.

[3] = Pharmacokinetics in rats (plasma) after oral administration; settings: male, SD, rat, 5 mg/kg

CNN(C(=O)c1cc2c(cc1F)nc(N)c1cncn12)C1COCc2c1ccn1c(C(F)(F)F)cnc21 (centres unmarked) [Example 282, 4-Amino-7-fluoro-N'-methyl-N-(3-(trifluoromethyl)-7,10-dihydro-8H-imidazo[1,2-a]pyrano[3,4-c]pyridin-7-yl)imidazo[1,5-a]quinoxaline-8-carbohydrazide]
IC50 (HCT116 wild-type cells): 2450 nM | Selectivity [1]: 145 | IC50 [1]: 17 nM | ΔTm at 8 µM [2]: 12.3 °C

Cc1cc2nc(N)c3cncn3c2cc1C(=O)N(C)[C@@H]1COCc2c1ccn1cc(C(F)(F)F)nc21 [Example 39-P1, (S)-4-amino-N,7-dimethyl-N-(2-(trifluoromethyl)-7,10-dihydro-8H-imidazo[1,2-a]pyrano[3,4-c]pyridin-7-yl)imidazo[1,5-a]quinoxaline-8-carboxamide]
IC50 (HCT116 wild-type cells): 1390 nM | Selectivity [1]: 108 | IC50 [1]: 13 nM | ΔTm at 8 µM [2]: 12.4 °C

CNN(C(=O)c1ccc2nc(N)c3cnn(C)c3c2c1)C1COCc2nc(S(F)(F)(F)(F)F)ccc21 (centres unmarked) [Example 448]
IC50 (HCT116 wild-type cells): 344 nM | Selectivity [1]: 44 | IC50 [1]: 7.8 nM | ΔTm at 8 µM [2]: 12.3 °C

CN(C(=O)c1ccc2nc(N)c3cnn(C)c3c2c1)C1COCc2c1ccn1cc(Br)nc21 (centres unmarked) [Example 37, 4-Amino-N-(2-bromo-7,10-dihydro-8H-imidazo[1,2-a]pyrano[3,4-c]pyridin-7-yl)-N,1-dimethyl-1H-pyrazolo [4,3-c] quinoline-8-carboxamide]
IC50 (HCT116 wild-type cells): 1520 nM | Selectivity [1]: 166 | IC50 [1]: 9.2 nM | ΔTm at 8 µM [2]: 11.3 °C

CCNN(C(=O)c1cc2c(cc1C)nc(N)c1cncn12)C1COCc2nc(C(F)(F)F)ccc21 (centres unmarked) [Example 277, 4-Amino-N'-ethyl-7-methyl-N-(2-(trifluoromethyl)-5,8-dihydro-6H-pyrano[3,4-b]pyridin-5-yl)imidazo[1,5-a]quinoxaline-8-carbohydrazide]
IC50 (HCT116 wild-type cells): 207 nM | Selectivity [1]: 17 | IC50 [1]: 12 nM | ΔTm at 8 µM [2]: 12.9 °C

CNN(C(=O)c1cc2c(cc1F)nc(N)c1cncn12)C1COCc2nc(C(F)(F)F)ccc21 (centres unmarked) [Example 279, 4-Amino-7-fluoro-N'-methyl-N-[2-(trifluoromethyl)-6,8-dihydro-5H-pyrano[3,4-b]pyridin-5-yl]imidazo[1,5-a]quinoxaline-8-hydrazide]
ΔTm at 8 µM [2]: 12.2 °C | AUC(0-inf) [3]: 729 ng·h/mL | Cmax [3]: 233 ng/mL | MRT inf [3]: 2.1 h | Tmax [3]: 0.5 h | half-life [3]: 1 h

[2H]C([2H])([2H])NN(C(=O)c1cc2c3c(c(N)nc2cn1)COC3)C1([2H])COCc2c1ccn1c(C(F)(F)F)cnc21 (centres unmarked) [Example 354, 4-Amino-N'-(methyl-d3)-N-(3-(trifluoromethyl)-7,10-dihydro-8H-imidazo[1,2-a]pyrano[3,4-c]pyridin-7-yl-7-d)-1,3-dihydrofuro[3,4-c][1,7]naphthyridine-8-carbohydrazide]
ΔTm at 8 µM [2]: 10.8 °C

CNN(C(=O)c1cc2c(cc1C)nc(N)c1cncn12)[C@@H]1COCc2nc(C(F)(F)F)ccc21 [Example 278-P1, (S)-4-amino-N',7-dimethyl-N-(2-(trifluoromethyl)-5,8-dihydro-6H-pyrano[3,4-b]pyridin-5-yl)imidazo[1,5-a]quinoxaline-8-carbohydrazide]
ΔTm at 8 µM [2]: 12.6 °C

CNN(C(=O)c1cc2c3c(c(N)nc2cn1)N=NC3C)C1COCc2c1ccn1c(C(F)(F)F)cnc21 (centres unmarked) [Example 444, 4-Amino-N',1-dimethyl-N-(3-(trifluoromethyl)-7,10-dihydro-8H-imidazo[1,2-a]pyrano[3,4-c]pyridin-7-yl)-1H-pyrazolo[3,4-c][1,7]naphthyridine-8-carbohydrazide]
ΔTm at 8 µM [2]: 12.7 °C

CNN(C(=O)c1cc2c3c(c(N)nc2cn1)COC3)C1COCc2cc(C(F)(F)F)ccc21 (centres unmarked) [Example 298, 4-Amino-N'-methyl-N-(7-(trifluoromethyl)isochroman-4-yl)-1,3-dihydrofuro[3,4-c][1,7]diazanaphthalene-8-carbohydrazide]
ΔTm at 8 µM [2]: 11.4 °C

CN(C(=O)c1cc2c(cc1F)nc(N)c1cncn12)C1COCc2c1ccn1c(C(F)=C3CCCCC3)cnc21 (centres unmarked) [Example 240, 4-Amino-N-(3-(cyclohexylidenefluoromethyl)-7,10-dihydro-8H-imidazo[1,2-a]pyrano[3,4-c]pyridin-7-yl)-7-fluoro-N-methylimidazo[1,5-a]quinoxaline-8-carboxamide]
ΔTm at 8 µM [2]: 10.8 °C

Cc1cc2nc(N)c3cncn3c2cc1C(=O)N(C)[C@@H]1COCc2c1ccn1c(C(F)(F)F)cnc21 [Example 62-P1, (S)-4-amino-N,7-dimethyl-N-(3-(trifluoromethyl)-7,10-dihydro-8H-imidazo[1,2-a]pyrano[3,4-c]pyridin-7-yl)imidazo[1,5-a]quinoxaline-8-carboxamide]
ΔTm at 8 µM [2]: 12.5 °C | AUC(0-inf) [3]: 1360 ng·h/mL | Cmax [3]: 441 ng/mL | MRT inf [3]: 4 h | Tmax [3]: 0.5 h | half-life [3]: 4.1 h

[2H]C([2H])([2H])NN(C(=O)c1cc2c3c(c(N)nc2cc1F)COC3)C1COCc2c1ccn1c(C(F)(F)F)cnc21 (centres unmarked) [Example 351, 4-Amino-7-fluoro-N'-(trideuteriomethyl)-N-(3-trifluoromethyl-7,10-dihydro-8H-imidazo [1,2-a]pyrano [3,4-c]pyridin-7-yl)-1,3-dihydrofuro [3,4-c] quinoline-8-carbohydrazide]
ΔTm at 8 µM [2]: 12.6 °C | AUC(0-inf) [3]: 9660 ng·h/mL | Cmax [3]: 2330 ng/mL | MRT inf [3]: 3.3 h | Tmax [3]: 0.5 h | half-life [3]: 2.3 h

[2H]C([2H])([2H])NN(C(=O)c1cc2c(cc1Cl)nc(N)c1cnn(C)c12)C1COCc2c1ccn1c(C(F)(F)F)cnc21 (centres unmarked) [Example 435, 4-Amino-7-chloro-1-methyl-N'-(methyl-d3)-N-(3-(trifluoromethyl)-7,10-dihydro-8H-imidazo[1,2-a]pyrano[3,4-c]pyridin-7-yl)-1H-pyrazolo[4,3-c] quinoline-8-carbohydrazide]
ΔTm at 8 µM [2]: 13.7 °C

[2H]C([2H])([2H])NN(C(=O)c1cc2c3c(c(N)nc2cn1)C(C)OC3)[C@@H]1COCc2nc(C(F)(F)F)ccc21 (some centres unmarked) [Example 322]
ΔTm at 8 µM [2]: 10.7 °C

CNN(C(=O)c1cc2c3c(c(N)nc2cn1)COC3)C1COCc2nc(C(F)(F)F)ccc21 (centres unmarked) [Example 286, 4-Amino-N'-methyl-N-(2-trifluoromethyl-5,8-dihydro-6H-pyrano[3,4-b]pyridin-5-yl)-1,3-dihydrofuro[3,4-c] [1,7]naphthyridine-8-carbohydrazide]
ΔTm at 8 µM [2]: 10.5 °C

CNN(C(=O)c1cc2c(cc1C)nc(N)c1cncn12)C1COCc2nc(C(F)(F)F)ccc21 (centres unmarked) [Example 278, 4-Amino-N',7-dimethyl-N-(2-(trifluoromethyl)-5,8-dihydro-6H-pyrano[3,4-b]pyridin-5-yl)imidazo[1,5-a]quinoxaline-8-carbohydrazide]
ΔTm at 8 µM [2]: 12.7 °C
